Experimental data taken from paper PMC9688225, “α-Lipoic Acid Derivatives as Allosteric Modulators for Targeting AMPA-Type Glutamate Receptors’ Gating Modules” (Cells, 2022).
Where two headings read alike, the source gives them in different places.

Columns and labels:
Format in all cases: cell-based
[1] = target: T1, GluA1 AMPA receptor subunit (flip isoform) (Homo sapiens, UniProt P42261); assay: Whole-cell patch-clamp electrophysiology, homomeric GluA1 expressed in HEK293 cells; conditions: for Amplitude (glutamate + compound): 10 mM glutamate + 12 µM compound, −60 mV, pH 7.4, 22 °C, mean ± SEM; for Amplitude (glutamate + compound) / A/AI (current with glutamate alone / current with glutamate + compound): n = 10; for A/AI (current with glutamate alone / current with glutamate + compound): 10 mM glutamate, 12 µM compound; for IC50: Hill fit; for t deact (weighted deactivation time constant) / t des (weighted desensitization time constant): glutamate + 12 µM compound; for t deact (weighted deactivation time constant): glutamate alone 2.2±0.1 ms; for t des (weighted desensitization time constant): glutamate alone 2.3±0.1 ms
T1 construct: expressed in transfected cells; host or cells: HEK293
T1 sequence (P42261 19-906 isoform P42261-2 limits assumed): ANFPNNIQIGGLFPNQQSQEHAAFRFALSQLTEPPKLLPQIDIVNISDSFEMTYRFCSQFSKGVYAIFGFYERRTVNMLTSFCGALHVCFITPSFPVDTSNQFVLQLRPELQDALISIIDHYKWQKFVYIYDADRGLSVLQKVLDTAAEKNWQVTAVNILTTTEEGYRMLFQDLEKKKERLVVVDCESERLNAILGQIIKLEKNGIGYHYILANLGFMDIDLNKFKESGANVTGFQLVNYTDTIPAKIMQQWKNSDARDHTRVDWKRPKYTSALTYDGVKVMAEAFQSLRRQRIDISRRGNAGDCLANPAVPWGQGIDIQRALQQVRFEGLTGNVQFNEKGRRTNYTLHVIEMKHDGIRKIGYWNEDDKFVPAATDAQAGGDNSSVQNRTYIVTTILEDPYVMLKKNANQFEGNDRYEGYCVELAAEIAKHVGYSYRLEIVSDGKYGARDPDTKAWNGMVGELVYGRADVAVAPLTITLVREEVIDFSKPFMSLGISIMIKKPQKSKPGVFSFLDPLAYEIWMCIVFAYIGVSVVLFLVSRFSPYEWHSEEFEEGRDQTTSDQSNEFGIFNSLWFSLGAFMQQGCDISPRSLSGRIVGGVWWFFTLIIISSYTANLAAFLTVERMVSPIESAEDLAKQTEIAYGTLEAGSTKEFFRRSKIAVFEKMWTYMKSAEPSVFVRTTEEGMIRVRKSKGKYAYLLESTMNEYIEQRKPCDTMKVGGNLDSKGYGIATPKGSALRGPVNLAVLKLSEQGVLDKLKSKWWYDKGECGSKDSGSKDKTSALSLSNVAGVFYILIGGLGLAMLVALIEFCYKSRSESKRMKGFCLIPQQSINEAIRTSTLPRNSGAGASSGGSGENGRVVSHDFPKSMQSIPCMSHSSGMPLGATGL
Description: (§1) Up to 20 μg of high-copy plasmid DNA was prepared using the QIAGEN Plasmid Mini Kit, the tubes were then centrifuged to extract the supernatant containing the plasmid DNA, ethanol was used to wash the DNA pellet, then centrifuged again and the supernatant was carefully removed as to not disturb the pellet, finally, the pellet was air-dried, and the DNA was re-dissolved in a suitable volume of buffer, (our prior study detailed the whole DNA preparation data). The flip isoform was used in all AMPAR subunits used in this investigation. AMPAR subunits were subcloned in pRK and expressed in the human embryonic kidney cells (HEK293) (The HEK293 cell line was obtained from Sigma, Schnelldorf, Germany). IPA (Integrated Patch Amplifier) recorded HEK293 cells 36–48 h after transfection using the patch-clamp method (Sutter Instruments, Novato, CA, USA). A high-speed piezo solution switcher was installed on a double-barreled glass (theta tube) to provide solutions fast, isolate receptor responses from any network influences, and preserve, as much as possible, the postsynaptic protein machinery. Thus, inhibition was measured by comparing the current recorded when glutamate alone was administered to the current observed when glutamate plus the compound of interest was delivered to the same cell. Before administering the α-LA compounds, experiments were conducted to determine the appropriate concentration to be delivered to the cells without harming them. Dichloromethane (12 µM) effect on GluA1 and GluA2 subunits was tested to ensure that it had no effect on AMPA receptor currents (Figure S8). The effect of α-LA compounds on AMPA subunits plateaued at a concentration of 12 µM because LA inhibits AMPA receptors at low concentrations and continues to inhibit them when LA concentrations are increased by 2 µM each interval, as shown in Figure S1. The concentration increased by 2 µM each time to ensure that no cells were harmed. The cells were washed for 20 s between α-LA derivatives (12 µM), and 10 mM glutamate was supplied alone after each α-LA compound to ensure cell health. Data analysis was carried out using Igor Pro7 (Wave Metrics, inc). For both desensitization (τw des) and deactivation rates (τw deact), an exponential fit to the current decline was obtained at 95% of peak to baseline current. The weighted tau (τw) was calculated as τw = (τf × af) + (τs × as), where af and as are the amplitudes of the fast (τf) and slow (τs) exponential components, respectively. Our study detailed the experimental data set.
(§2) Data are presented as mean ± standard error of the mean (SEM). The number of samples (n = 10) refers to the total number of tested HEK293 cells. Statistical differences between the groups and the wild type were examined by One Way Analysis of Variance (ANOVA), with values of p < 0.05 being considered to indicate statistical significance: (*) p < 0.05, (**) p < 0.01, (***) p < 0.001, ns, not significant. Concentration-response relationships were fitted as composite curves using GraphPad Prism version 6.01 (GraphPad Software, San Diego, CA, USA) to the Hill equation. All results were representative of at least three independent experiments.
(§3) Figure 2 Suppression of AMPA receptor currents by α-LA compounds. Graphs (a,c,e,g) present AMPA receptor currents (pA) before and after the administration of α-LA derivatives on GluA1, GluA1/2, GluA2, and GluA2/3 subunits. While (b,d,f,h) present the ratio A/AI, where A represents the current caused by 10 mM glutamate alone and AI represents the current induced by glutamate + α-LA (12 µM). The whole-cell current was measured at −60 mV, pH 7.4, and 22 °C. A one way analysis of variance (ANOVA) was performed for comparison: *** p < 0.001; ns, not significant. Ten cells were investigated for each LA compound. All values are shown as mean SEM.
(§4) Figure 3 The potency of LA compounds against AMPA receptor subunits. […]

[2] = target: T2, GluA1/2 AMPA receptor subunits (flip isoform) (Homo sapiens, UniProt P42261+P42262); assay: Whole-cell patch-clamp electrophysiology, heteromeric GluA1/2 expressed in HEK293 cells; conditions: for Amplitude (glutamate + compound): 10 mM glutamate + 12 µM compound, −60 mV, pH 7.4, 22 °C, mean ± SEM; for Amplitude (glutamate + compound) / A/AI (current with glutamate alone / current with glutamate + compound): n = 10; for A/AI (current with glutamate alone / current with glutamate + compound): 10 mM glutamate, 12 µM compound; for IC50: Hill fit; for t deact (weighted deactivation time constant) / t des (weighted desensitization time constant): glutamate + 12 µM compound; for t deact (weighted deactivation time constant): glutamate alone 2.5±0.3 ms; for t des (weighted desensitization time constant): glutamate alone 5.3±0.4 ms
T2 construct: expressed in transfected cells; host or cells: HEK293
T2 sequence (P42261 19-906 isoform P42261-2 limits assumed): as above
T2 sequence (P42262 25-883 isoform P42262-2 limits assumed): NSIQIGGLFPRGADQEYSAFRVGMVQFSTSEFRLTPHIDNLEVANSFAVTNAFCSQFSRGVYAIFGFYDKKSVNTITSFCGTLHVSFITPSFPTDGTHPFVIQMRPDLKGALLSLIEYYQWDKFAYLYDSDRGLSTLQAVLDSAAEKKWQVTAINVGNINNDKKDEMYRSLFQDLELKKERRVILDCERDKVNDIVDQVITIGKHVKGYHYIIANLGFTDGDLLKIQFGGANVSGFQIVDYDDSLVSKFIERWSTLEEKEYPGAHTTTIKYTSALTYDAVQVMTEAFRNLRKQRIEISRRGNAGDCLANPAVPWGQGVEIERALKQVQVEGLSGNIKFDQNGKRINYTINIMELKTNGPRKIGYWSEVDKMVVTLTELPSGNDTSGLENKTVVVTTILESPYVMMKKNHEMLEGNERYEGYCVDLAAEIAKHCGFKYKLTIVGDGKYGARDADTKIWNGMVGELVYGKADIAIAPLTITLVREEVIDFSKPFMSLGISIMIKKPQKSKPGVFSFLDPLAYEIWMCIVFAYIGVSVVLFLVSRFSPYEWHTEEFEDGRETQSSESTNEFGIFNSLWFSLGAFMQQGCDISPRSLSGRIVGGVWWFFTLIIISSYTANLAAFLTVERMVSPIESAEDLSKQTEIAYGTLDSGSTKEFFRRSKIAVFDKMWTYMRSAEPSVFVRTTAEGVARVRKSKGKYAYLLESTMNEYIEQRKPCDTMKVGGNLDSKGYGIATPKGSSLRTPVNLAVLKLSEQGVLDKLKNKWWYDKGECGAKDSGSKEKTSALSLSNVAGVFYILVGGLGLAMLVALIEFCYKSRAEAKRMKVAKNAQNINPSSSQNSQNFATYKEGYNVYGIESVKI
Description: as §1, §2, §3, §4

[3] = target: T3, GluA2 AMPA receptor subunit (flip isoform) (Homo sapiens, UniProt P42262); assay: Whole-cell patch-clamp electrophysiology, homomeric GluA2 expressed in HEK293 cells; conditions: for Amplitude (glutamate + compound): 10 mM glutamate + 12 µM compound, −60 mV, pH 7.4, 22 °C, mean ± SEM; for Amplitude (glutamate + compound) / A/AI (current with glutamate alone / current with glutamate + compound): n = 10; for A/AI (current with glutamate alone / current with glutamate + compound): 10 mM glutamate, 12 µM compound; for IC50: Hill fit; for t deact (weighted deactivation time constant) / t des (weighted desensitization time constant): glutamate + 12 µM compound; for t deact (weighted deactivation time constant): glutamate alone 2.4±0.1 ms; for t des (weighted desensitization time constant): glutamate alone 2.6±0.1 ms
T3 construct: expressed in transfected cells; host or cells: HEK293
T3 sequence (P42262 25-883 isoform P42262-2 limits assumed): as above
Description: as §1, §2, §3, §4

[4] = target: T4, GluA2/3 AMPA receptor subunits (flip isoform) (Homo sapiens, UniProt P42262+P42263); assay: Whole-cell patch-clamp electrophysiology, heteromeric GluA2/3 expressed in HEK293 cells; conditions: for Amplitude (glutamate + compound): 10 mM glutamate + 12 µM compound, −60 mV, pH 7.4, 22 °C, mean ± SEM; for Amplitude (glutamate + compound) / A/AI (current with glutamate alone / current with glutamate + compound): n = 10; for A/AI (current with glutamate alone / current with glutamate + compound): 10 mM glutamate, 12 µM compound; for IC50: Hill fit; for t deact (weighted deactivation time constant) / t des (weighted desensitization time constant): glutamate + 12 µM compound; for t deact (weighted deactivation time constant): glutamate alone 2.4±0.3 ms; for t des (weighted desensitization time constant): glutamate alone 2.7±0.3 ms
T4 construct: expressed in transfected cells; host or cells: HEK293
T4 sequence (P42262 25-883 isoform P42262-2 limits assumed): as above
T4 sequence (P42263 29-894 isoform P42263-2 limits assumed): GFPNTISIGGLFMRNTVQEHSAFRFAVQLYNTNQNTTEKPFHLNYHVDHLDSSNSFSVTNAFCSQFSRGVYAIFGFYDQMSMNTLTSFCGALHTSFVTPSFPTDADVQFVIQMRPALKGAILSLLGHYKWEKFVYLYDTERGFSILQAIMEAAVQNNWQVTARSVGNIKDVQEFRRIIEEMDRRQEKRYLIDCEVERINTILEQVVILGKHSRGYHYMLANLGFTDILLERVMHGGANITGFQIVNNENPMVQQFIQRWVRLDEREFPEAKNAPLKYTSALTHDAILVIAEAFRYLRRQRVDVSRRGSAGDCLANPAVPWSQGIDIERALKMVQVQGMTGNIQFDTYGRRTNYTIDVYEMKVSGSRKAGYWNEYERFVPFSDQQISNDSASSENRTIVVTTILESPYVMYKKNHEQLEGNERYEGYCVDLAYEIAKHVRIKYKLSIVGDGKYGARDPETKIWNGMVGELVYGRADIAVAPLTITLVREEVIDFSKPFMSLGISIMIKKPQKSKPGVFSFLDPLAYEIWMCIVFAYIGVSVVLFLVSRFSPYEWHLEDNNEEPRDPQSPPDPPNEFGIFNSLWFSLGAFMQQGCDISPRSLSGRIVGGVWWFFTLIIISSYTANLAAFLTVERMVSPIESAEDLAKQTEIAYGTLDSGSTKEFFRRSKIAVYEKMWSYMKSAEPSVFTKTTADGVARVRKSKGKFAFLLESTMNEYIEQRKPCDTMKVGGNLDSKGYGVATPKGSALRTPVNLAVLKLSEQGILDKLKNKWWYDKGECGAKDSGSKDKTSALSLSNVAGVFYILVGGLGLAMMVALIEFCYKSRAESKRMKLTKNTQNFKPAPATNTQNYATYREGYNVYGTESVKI
Description: as §1, §2, §3, §4

[5] = tested on: AMPA receptor subunits (GluA1, GluA2, GluA1/2, GluA2/3); assay: Whole-cell patch-clamp electrophysiology, summary over the AMPA receptor subunits in HEK293 cells; conditions: all AMPA receptor subunits; 12 µM compound
Description: as §1, §2
The levels of inhibition of α-LA and its derivatives attracted our attention to assessing the potency of the compounds in a concentration-dependent manner. […] The concentration−inhibition curves were produced by administering glutamate alone at a concentration of 10 mM, followed by glutamate + α-LA derivatives at varying concentrations (in μM) for every recording point. Afterward, the cells were normalized back by administering glutamate alone. Since the glutamate concentration in the synaptic cleft constantly saturates the receptors, driving the response to a near maximum level, variability occurs because the maximum level changes. […]

[6] = whole-cell normalized peak amplitude, unit printed in the text, not in Table S6, read-out: IC50

Compound: O=C(CCCCC1CCSS1)OCCCCCCO[N+](=O)[O-] (stereo not shown) [LA3, 1-Nitrooxy–Hexane-6-lipoyl ester]
- Amplitude (glutamate + compound) [1]: 114±12.0 pA
- A/AI (current with glutamate alone / current with glutamate + compound) [1]: 8.13±0.6
- IC50 ([1]; read-out: Log IC50 (converted)): 3.63 µM
- t deact (weighted deactivation time constant) [1]: 8.1 ± 0.4 ms
- t des (weighted desensitization time constant) [1]: 1.7 ± 0.1 ms
- IC50 [1, 6]: 3.59 µM
- Amplitude (glutamate + compound) [2]: 81±12.0 pA
- A/AI (current with glutamate alone / current with glutamate + compound) [2]: 8.05±0.8
- IC50 ([2]; read-out: Log IC50 (converted)): 4.37 µM
- t deact (weighted deactivation time constant) [2]: 7.9 ± 0.67 ms
- t des (weighted desensitization time constant) [2]: 3.6 ± 0.2 ms
- IC50 [2, 6]: 4.33 µM
- Amplitude (glutamate + compound) [3]: 155±25 pA
- A/AI (current with glutamate alone / current with glutamate + compound) [3]: 7.91±0.7
- IC50 ([3]; read-out: Log IC50 (converted)): 4.37 µM
- t deact (weighted deactivation time constant) [3]: 7.7 ± 0.3 ms
- t des (weighted desensitization time constant) [3]: 1.8 ± 0.04 ms
- IC50 [3, 6]: 4.37 µM
- Amplitude (glutamate + compound) [4]: 71±14.0 pA
- A/AI (current with glutamate alone / current with glutamate + compound) [4]: 7.84±0.9
- IC50 ([4]; read-out: Log IC50 (converted)): 4.47 µM
- t deact (weighted deactivation time constant) [4]: 7.6 ± 0.7 ms
- t des (weighted desensitization time constant) [4]: 1.9 ± 0.1 ms
- IC50 [4, 6]: 4.46 µM
- decrease in the peak current of the AMPARs [5]: roughly 8 fold
- increase of the rate of AMPA receptor deactivation (τw deact) [5]: roughly 3 fold

Compound: O=C(CCCCC1CCSS1)OCCCCCCO (stereo not shown) [LA4, 1-Hydroxy-6-Lipoester]
- Amplitude (glutamate + compound) [1]: 121±18 pA
- A/AI (current with glutamate alone / current with glutamate + compound) [1]: 7.79±0.5
- IC50 ([1]; read-out: Log IC50 (converted)): 4.17 µM
- t deact (weighted deactivation time constant) [1]: 7.5 ± 0.3 ms
- t des (weighted desensitization time constant) [1]: 1.8 ± 0.1 ms
- IC50 [1, 6]: 4.18 µM
- Amplitude (glutamate + compound) [2]: 87±13.0 pA
- A/AI (current with glutamate alone / current with glutamate + compound) [2]: 7.70±0.7
- IC50 ([2]; read-out: Log IC50 (converted)): 4.37 µM
- t deact (weighted deactivation time constant) [2]: 7.4 ± 0.4 ms
- t des (weighted desensitization time constant) [2]: 3.7 ± 0.3 ms
- IC50 [2, 6]: 4.41 µM
- Amplitude (glutamate + compound) [3]: 166±28 pA
- A/AI (current with glutamate alone / current with glutamate + compound) [3]: 7.65±0.5
- IC50 ([3]; read-out: Log IC50 (converted)): 4.47 µM
- t deact (weighted deactivation time constant) [3]: 7.1 ± 0.4 ms
- t des (weighted desensitization time constant) [3]: 1.9 ± 0.07 ms
- IC50 [3, 6]: 4.47 µM
- Amplitude (glutamate + compound) [4]: 72±15.0 pA
- A/AI (current with glutamate alone / current with glutamate + compound) [4]: 7.58±0.7
- IC50 ([4]; read-out: Log IC50 (converted)): 4.79 µM
- t deact (weighted deactivation time constant) [4]: 6.9 ± 0.5 ms
- t des (weighted desensitization time constant) [4]: 2.0 ± 0.1 ms
- IC50 [4, 6]: 4.76 µM
- decrease in the peak current of the AMPARs [5]: roughly 8 fold
- increase of the rate of AMPA receptor deactivation (τw deact) [5]: roughly 3 fold
